# According to patent US6916800B2, “Combination therapy including a matrix metalloproteinase inhibitor and an antineoplastic agent” (Pfizer Inc, priority 1998, dated 2005):
# Key:
# MX-1 breast tumor = assay: Breast Tumor Model: MX-1 with Compound M14 and Taxol, tumor volume; assay type: in vivo, nude mice; conditions: for Tumor Volume at Day 25: MX-1 model, nude mice
# Method: This study was carried out essentially as PC-3 model. MX-1 breast tumor pieces were implanted (with a trocar) into nude mice with n=10 per group. Dosing with Compound M14 (10 mpk or 50 mpk, PO bid) was initiated when the tumors reached a size of 60-120 mg. Dosing was continued for 26 days. Taxol was administered at a dose of 9 mpk for the first five days following the start of dosing by the interperitonal route. The tumors were measured using a caliper and the volume calculated using the formula for the volume of an elipsoid.
# SK-mes tumors = assay: SK-mes Tumor with Taxol: MMPI BID, endpoint 1.0 g; assay type: in vivo, Mice
# Method: 5. SK-mes Tumor with Taxol
# (§1) Mice were implanted with SK-mes tumors and allowed to grow to 50-100 mg. The animals were pair matched and this was considered Day 1. Treatment with MMPI was begun BID on Day 1 until the end of the experiment. Taxol was injected IP (18 or 9 mpk) QD for 5 days (days 1-5). Tumors were measured weekly until an endpoint of 1.0 g was reached.
# [1] = test system: advanced, rapidly progressive, treatment-refractory solid tumor cancers (colorectal, pancreatic, ovarian, prostate); conditions: cited from earlier work
# [2] = dose of 25 mg/kg/day; cited from earlier work
# HT-29 tumors = assay: HT-29 Tumor with Irinotecan: MMPI BID, endpoint 1.0 g; assay type: in vivo, Mice
# Method: 6. HT-29 Tumor with Irinotecan
# as §1, with “HT-29” for “SK-mes”, “Irinotecan” for “Taxol”, “(100” for “(18”, “50” for “9”
# PC-3 tumor cells = assay: Pancreatic Cell (PC-3) Model: MMP inhibitor with cisplatin, tumor volume; assay type: in vivo; conditions: PC3 model, n=10
# Method: 1. Pancreatic Cell (PC-3) Model:
# In this study, the test groups were a vehicle control, Compound M14, Compound M14 with cisplatin and cisplatin alone with n=10 for each group. The tumors were measured with a caliper and the volume calculated using the formula for the volume of an elipsoid. The cisplatin dose was 10 mpk administered by the intraperitonal route on day 8 post injecion of tumor cells Compound M14, 50 mpk, was first administered about 6:00 pm the evening of the same day that the tumor cells were injected in the morning. The same dose of Compound M14 was administered bid for each following day. Tumor volume (mm^3) was measured on day 25.
# [3] = dose dependent at 27, 125 and 375 µg; cited from earlier work
# melanoma = conditions: 100 mg/kg; cited from earlier work
# [4] = 50 mg/kg bid. p.o.; cited from earlier work
# colonic epithelia = conditions: variety of cell model systems including colonic epithelia; cited from earlier work
# [5] = doses of 15 mg/kg/day; cited from earlier work
# MX-1 tumors [6] = assay: MX-1 Adjuvant Model: cyclophosphamide then MMPI, mean days to tumor weight of 1.5 g; assay type: in vivo, Mice
# Method: Mice were implanted with MX-1 tumors and allowed to grow to 50-100 mm3. The animals were dosed with cyclophosphamide (100 or 80 mpk). This was considered Day 1. Two weeks later the animals were pair matched after tumor regression and dosing BID with the MMPI was begun until the end of the experiment. Tumors were measured weekly.
# MX-1 tumors [7] = assay: MX-1 Breast Tumor with Taxol: MMPI BID, endpoint 1.5 g; assay type: in vivo, Mice; conditions: MX-1 tumor
# Method: MDS=mean days to tumor weight of 1.5 g 4. MX-1 Breast Tumor with Taxol:
# Mice were implanted with MX-1 tumors and allowed to grow to 50-100 mg. The animals were pair matched and this was considered Day 1. Treatment with MMPI was begun BID on Day 1 until the end of the experiment. […] Tumors were measured weekly until an endpoint of 1.5 g was reached.
# Primary tumors = conditions: cited from earlier work
# [8] = mmpi alone, Compound M14 20 mpk BID
# [9] = mmpi alone, Compound M14 100 mpk BID
# [10] = taxol 9 mpk + Compound M14 20 mpk BID
# [11] = taxol 9 mpk + Compound M14 100 mpk BID
# [12] = taxol 18 mpk + Compound M14 20 mpk BID
# [13] = taxol 18 mpk + Compound M14 100 mpk BID
compound,measurement,setting,value
"CC(=O)O[C@H]1C(=O)[C@@]2(C)[C@H]([C@H](OC(=O)c3ccccc3)[C@]3(O)C[C@H](OC(=O)[C@H](O)[C@@H](NC(=O)c4ccccc4)c4ccccc4)C(C)=C1C3(C)C)[C@]1(OC(C)=O)CO[C@@H]1C[C@@H]2O [Taxol, reference compound]",Tumor Volume at Day 25,"MX-1 breast tumor; taxol alone, 9 mpk ip first five days",1280 mm^3
same,MDS (MDS = 1.0 g),SK-mes tumors; taxol alone 9 mpk IP QD days 1-5,26.1 days
same,MDS (MDS = 1.0 g),SK-mes tumors; taxol alone 18 mpk IP QD days 1-5,31.5 days
"CNC(=O)[C@@H](NC(=O)[C@H](CC(C)C)[C@H](O)C(=O)NO)C(C)(C)C (relative stereo) [marimastat, N4-[2,2-dimethyl-1-[(methylamino)carbonyl]propyl]-N1,2-dihydroxy-3 (2-methylpropyl)-, [2S-[N4(R*),2R*,3S*]]-)]",most common drug-related toxicity,[1]; clinical trials,musculoskeletal pain and stiffness
same,rise of cancer-specific antigens used as surrogate markers for biological activity,"[1]; patients, Phase I/II",dose-related reduction
"CC1(C)SCCN(S(=O)(=O)c2ccc(Oc3ccc(-n4ccnc4)cc3)cc2)[C@H]1C(=O)NO [3(S)-N-hydroxy-4-(4-[4-(imidazol-1-yl)phenoxy]benzenesulfonyl)-2,2-dimethyl-tetrahydro-2H-1,4-thiazine-3-carboxamide]",weight loss inhibition,[2],gave 97.5%
"CCc1c2c(nc3ccc(OC(=O)N4CCC(N5CCCCC5)CC4)cc13)-c1cc3c(c(=O)n1C2)COC(=O)[C@]3(O)CC [Irinotecan, reference compound]",MDS (MDS = 1.0 g),HT-29 tumors; Irinotecan alone 50 mpk IP QD days 1-5,38.1 days
same,MDS (MDS = 1.0 g),HT-29 tumors; Irinotecan alone 100 mpk IP QD days 1-5,36.7 days
"N.N.[Cl][Pt][Cl] [cisplatin, Platinum, diamminedichloro-, (SP-4-2)-, reference compound]",Tumor Volume at Day 25,"PC-3 tumor cells; cisplatin alone, 10 mpk intraperitoneal on day 8",630 mm^3
CC(C)(S)[C@@H](N)C(=O)O [D-penicillamine],allergic encephalitis symptom scores,[3],reduced
2-Pyrolylthiochromone,inhibition,melanoma,37%
"CNC(=O)[C@H](CC1CCCCC1)NC(=O)[C@H](CC(C)C)[C@H](O)C(=O)NO (relative stereo) [BB-1433, Butanediamide, N1-[1(cyclohexylmethyl)-2(methylamino)-2-oxoethyl]-N4,3-dihydroxy-2-(2-methylpropyl)-, [2R[N1(S*),2R*,3S*]]-]",bone mineral density loss,[4],inhibited
C[C@H](CCC(=O)O)[C@H]1CC[C@H]2[C@@H]3[C@@H](O)C[C@@H]4C[C@H](O)CC[C@]4(C)[C@H]3CC[C@]12C [URSO],cytotoxicity,colonic epithelia,non cytotoxic
same,tolerability and toxicity,[5],extremely well tolerated and without toxicity
"C#CCN1CCC(C(=O)NO)(S(=O)(=O)c2ccc(Sc3ccccc3)cc2)CC1.Cl [Compound M14, N-hydroxy-4-[[4-(phenylthio)phenyl]sulfonyl]-1-(2-propynyl)-4-piperidinecarboxamide monohydrochloride]",Tumor Volume at Day 25,PC-3 tumor cells; Compound M14 50 mpk bid with cisplatin 10 mpk ip day 8,110 mm^3
same,Tumor Volume at Day 25,"PC-3 tumor cells; Compound M14 alone, 50 mpk bid",480 mm^3
same,response (tumor volume),MX-1 breast tumor; Compound M14 10 mpk or 50 mpk PO bid for 26 days with Taxol 9 mpk for the first five days,improved response
same,Tumor Volume at Day 25,MX-1 breast tumor; Compound M14 @ 10 mpk + taxol @ 9 mpk,240 mm^3
same,Tumor Volume at Day 25,MX-1 breast tumor; Compound M14 @ 10 mpk PO bid alone,960 mm^3
same,Tumor Volume at Day 25,MX-1 breast tumor; Compound M14 @ 50 mpk + taxol @ 9 mpk,480 mm^3
same,Tumor Volume at Day 25,MX-1 breast tumor; Compound M14 @ 50 mpk PO bid alone,1260 mm^3
same,MDS (mean days to tumor weight of 1.5 g),"MX-1 tumors [6]; cyclophosphamide 0 mpk (so in the source), then Compound M14 200 mpk BID",53.9 days
same,MDS (mean days to tumor weight of 1.5 g),"MX-1 tumors [6]; cyclophosphamide 80 mpk, then Compound M14 50 mpk BID",44.2 days
same,MDS (mean days to tumor weight of 1.5 g),"MX-1 tumors [6]; cyclophosphamide 100 mpk, then Compound M14 50 mpk BID",43.7 days
same,MDS (mean days to tumor weight of 1.5 g),"MX-1 tumors [6]; cyclophosphamide 100 mpk, then Compound M14 200 mpk BID",52.7 days
same,MDS (MDS = 1.5 g),MX-1 tumors [7]; [8],34.7 days
same,MDS (MDS = 1.5 g),MX-1 tumors [7]; [9],32.2 days
same,MDS (MDS = 1.5 g),MX-1 tumors [7]; [10],39.3 days
same,MDS (MDS = 1.5 g),MX-1 tumors [7]; [11],46.7 days
same,MDS (MDS = 1.5 g),MX-1 tumors [7]; [12],59.3 days
same,MDS (MDS = 1.5 g),MX-1 tumors [7]; [13],61 days
same,MDS (MDS = 1.5 g),"MX-1 tumors [7]; taxol + mmpi as printed, taxol 9 mpk IP QD days 1-5, no MMPI dose printed",30.1 days
same,MDS (MDS = 1.5 g),"MX-1 tumors [7]; taxol + mmpi as printed, taxol 18 mpk IP QD days 1-5, no MMPI dose printed",56 days
same,MDS (MDS = 1.0 g),SK-mes tumors; [8],18 days
same,MDS (MDS = 1.0 g),SK-mes tumors; [9],24.7 days
same,MDS (MDS = 1.0 g),SK-mes tumors; [10],34.1 days
same,MDS (MDS = 1.0 g),SK-mes tumors; [11],34.8 days
same,MDS (MDS = 1.0 g),SK-mes tumors; [12],39.5 days
same,MDS (MDS = 1.0 g),SK-mes tumors; [13],43 days
same,MDS (MDS = 1.0 g),HT-29 tumors; Irinotecan 50 mpk + Compound M14 20 mpk BID,36.1 days
same,MDS (MDS = 1.0 g),HT-29 tumors; Irinotecan 50 mpk + Compound M14 100 mpk BID,44.4 days
same,MDS (MDS = 1.0 g),HT-29 tumors; Irinotecan 100 mpk + Compound M14 20 mpk BID,40.6 days
same,MDS (MDS = 1.0 g),HT-29 tumors; Irinotecan 100 mpk + Compound M14 100 mpk BID,51.4 days
same,MDS (MDS = 1.0 g),HT-29 tumors; [8],36 days
same,MDS (MDS = 1.0 g),HT-29 tumors; [9],37.9 days
"O=P1(N(CCCl)CCCl)NCCCO1 (stereo not shown) [cyclophosphamide, reference compound]",MDS (mean days to tumor weight of 1.5 g),MX-1 tumors [6]; cyclophosphamide 80 mpk alone,37.2 days
same,MDS (mean days to tumor weight of 1.5 g),MX-1 tumors [6]; cyclophosphamide 100 mpk alone,39.5 days
endostatin,toxicity,Primary tumors; in vivo,not observed
same,primary tumor response,Primary tumors; non-refolded suspensions,regressed to dormant microscopic lesions
